Where “and” joins values, the source holds several entries; their conditions need not be identical. Equal entries are not always repeated.
Legend:
[1] = DNDI: Cytotoxicity against L-6 rat myoblasts from skeletal muscle cells; conditions: L6 rat skeletal muscle myoblast cells
Trypanosoma cruzi [2] = experiment: microbe, parasite or virus in culture; format: functional, organism-based, Tulahuen LacZ, Clone C4
Trypanosoma cruzi [3] = experiment: microbe, parasite or virus in culture; format: functional, Tulahuen LacZ, Clone C4
[4] = Trypanosoma cruzi, Tulahuen LacZ, Clone C4

OC(c1cncnc1)(c1ccccc1Cl)c1ccccc1Cl
IC50 ([1]; IC50): > 100000 nM
IC50 (Trypanosoma cruzi [2]; [4]): 1060 nM

Cc1ccccc1C(O)(c1ccc(Cl)cc1)c1cccnc1 (stereo not drawn)
IC90 (Trypanosoma cruzi [3]; [4]): 2780 nM
IC50 [1]: 62000 nM
IC50 (Trypanosoma cruzi [2]; [4]): 370 nM

CC(C)CC(O)(c1ccc(Cl)cc1)c1cncnc1 (stereo not drawn)
IC90 (Trypanosoma cruzi [3]; [4]): 10000 nM
IC50 ([1]; IC50): > 100000 nM
IC50 (Trypanosoma cruzi [2]; [4]): 1150 nM

OC(c1ccc(Cl)cc1)(c1cccnc1)c1ccc(Br)cc1F (stereo not drawn)
IC90 (Trypanosoma cruzi [3]; [4]): 120 nM
IC50 (Trypanosoma cruzi [2]; [4]): 27 nM

OC(c1ccc(Cl)cc1)(c1cccnc1)c1ccc(Cl)cc1F (stereo not drawn)
IC90 (Trypanosoma cruzi [3]): 32 nM
IC90 (Trypanosoma cruzi [3]; [4]): 31 nM
IC50 [1]: > 100000 nM
IC50 (Trypanosoma cruzi [2]): 19 nM
IC50 (Trypanosoma cruzi [2]; [4]): 14 nM

[O-][n+]1cncc(C(O)(c2ccc(Cl)cc2)c2ccccc2Cl)c1 (stereo not drawn)
IC50 ([1]; IC50): > 100000 nM
IC50 (Trypanosoma cruzi [2]; [4]): 14500 nM

COC(c1ccc(Cl)cc1)(c1cccnc1)c1ccccc1Cl (stereo not drawn)
IC90 (Trypanosoma cruzi [3]; [4]): 10000 nM
IC50 (Trypanosoma cruzi [2]; [4]): 90 nM

OC(c1ccc(Cl)cc1)(c1ncccn1)c1ccccc1Cl (stereo not drawn)
IC90 (Trypanosoma cruzi [3]; [4]): 66000 nM
IC50 ([1]; IC50): > 100000 nM
IC50 (Trypanosoma cruzi [2]; [4]): 22900 nM

OC(c1ccc(C(F)(F)F)cc1)(c1cncnc1)c1ccccc1Cl (stereo not drawn)
IC90 (Trypanosoma cruzi [3]; [4]): 20000 nM
IC50 ([1]; IC50): > 100000 nM
IC50 (Trypanosoma cruzi [2]; [4]): 250 nM

CC1(C)CC(=O)C(C(=O)c2ccc(Cl)cc2Cl)C(=O)C1
IC50 ([1]; IC50): 76500 nM
IC50 (Trypanosoma cruzi [2]; [4]): 58500 nM

FC(c1ccc(Cl)cc1)(c1cccnc1)c1ccccc1Cl (stereo not drawn)
IC90 (Trypanosoma cruzi [3]; [4]): 1000 nM
IC50 ([1]; IC50): 59700 nM
IC50 (Trypanosoma cruzi [2]; [4]): 170 nM

Cc1cccc(C(O)(c2ccc(Cl)cc2)c2cncnc2)c1 (stereo not drawn)
IC90 (Trypanosoma cruzi [3]; [4]): 5230 nM
IC50 ([1]; IC50): 68400 nM
IC50 (Trypanosoma cruzi [2]; [4]): 328 nM

OC(c1ccc(Cl)cc1)(c1cncnc1)c1cccs1 (stereo not drawn)
IC90 (Trypanosoma cruzi [3]; [4]): 76000 nM
IC50 ([1]; IC50): > 100000 nM
IC50 (Trypanosoma cruzi [2]; [4]): 70 nM

CON=C(Cc1ccc(OC)cc1)c1ccc(OC)c(OC)c1OC
IC50 ([1]; IC50): 92300 nM
IC50 (Trypanosoma cruzi [2]; [4]): > 1000 nM

CCCCC(O)(c1ccc(Cl)cc1)c1cnccn1 (stereo not drawn)
IC90 (Trypanosoma cruzi [3]; [4]): 3000 nM
IC50 ([1]; IC50): > 100000 nM
IC50 (Trypanosoma cruzi [2]; [4]): 330 nM

Cc1noc(C)c1C(=O)N1CCC(NC(c2ccc(C(F)(F)F)cc2)c2cccnc2)CC1 (stereo not drawn)
IC90 (Trypanosoma cruzi [3]): 46 nM and 96 nM
IC50 ([1]; IC50): > 100000 nM
IC50 (Trypanosoma cruzi [2]): 36.5 nM
IC50 (Trypanosoma cruzi [2]; [4]): 20 nM

O=C(c1ccc(Cl)cc1)c1ccccc1Cl
IC90 (Trypanosoma cruzi [3]; [4]): 10000 nM
IC50 ([1]; IC50): > 100000 nM
IC50 (Trypanosoma cruzi [2]; [4]): > 10000 nM

CC(=O)N1CCN(C(c2ccc(Cl)cc2)c2cccnc2)CC1 (stereo not drawn)
IC90 (Trypanosoma cruzi [3]): 820 nM and 930 nM and 520 nM
IC90 (Trypanosoma cruzi [3]; [4]): 960 nM
IC50 ([1]; IC50): > 100000 nM
IC50 (Trypanosoma cruzi [2]): 490 nM [middle of 4 runs]

CC(C)c1ccc(C(O)(c2ccc(C(F)(F)F)cc2)c2cccnc2)cc1 (stereo not drawn)
IC90 (Trypanosoma cruzi [3]; [4]): 7 nM
IC50 (Trypanosoma cruzi [2]; [4]): 2 nM

OC(c1ccc(Cl)cc1)(c1cccnc1)c1ccc(Cl)s1 (stereo not drawn)
IC50 ([1]; IC50): 50000 nM
IC50 (Trypanosoma cruzi [2]; [4]): 77 nM

CC(C)(C)NC(=O)N1CCC(NC(c2ccc(C(F)(F)F)cc2)c2cccnc2)CC1 (stereo not drawn)
IC90 (Trypanosoma cruzi [3]): 207 nM
IC90 (Trypanosoma cruzi [3]; [4]): 402 nM
IC50 ([1]; IC50): > 100000 nM
IC50 (Trypanosoma cruzi [2]): 61 nM
IC50 (Trypanosoma cruzi [2]; [4]): 48 nM

OC(c1cncnc1)(c1ccccn1)c1ccccc1Cl (stereo not drawn)
IC90 (Trypanosoma cruzi [3]; [4]): 15500 nM
IC50 ([1]; IC50): > 100000 nM
IC50 (Trypanosoma cruzi [2]; [4]): 7330 nM

CON=C(Cc1ccccc1)c1ccc(OC)cc1
IC50 ([1]; IC50): > 100000 nM
IC50 (Trypanosoma cruzi [2]; [4]): > 1000 nM

CON=C(Cc1ccccc1C(=O)O)c1ccc(Cl)cc1
IC50 ([1]; IC50): > 100000 nM
IC50 (Trypanosoma cruzi [2]; [4]): > 1000 nM

CC(C)C(=O)N1CCN(C(c2ccc(Cl)cc2)c2cncnc2)CC1 (stereo not drawn)
IC90 (Trypanosoma cruzi [3]): > 1000 nM
IC50 (Trypanosoma cruzi [2]): 680 nM

O=C(c1ccc(F)cc1)c1ccc(Cl)cc1
IC90 (Trypanosoma cruzi [3]; [4]): 10000 nM
IC50 ([1]; IC50): > 100000 nM
IC50 (Trypanosoma cruzi [2]; [4]): > 10000 nM

CON=C(c1ccc(Cl)cc1)c1ccc(Cl)cc1
IC90 (Trypanosoma cruzi [3]; [4]): 10000 nM
IC50 ([1]; IC50): > 100000 nM
IC50 (Trypanosoma cruzi [2]; [4]): > 10000 nM

CS(=O)(=O)N1CCC(CNC(c2ccc(C(F)(F)F)cc2)c2cnccn2)CC1 (stereo not drawn)
IC90 (Trypanosoma cruzi [3]): 910 nM
IC50 (Trypanosoma cruzi [2]): 360 nM

OC(c1cncnc1)(c1ccccc1F)c1ccccc1Cl (stereo not drawn)
IC90 (Trypanosoma cruzi [3]; [4]): 9370 nM
IC50 ([1]; IC50): > 100000 nM
IC50 (Trypanosoma cruzi [2]; [4]): 2640 nM

O=C(C1CC1)N1CCN(C(c2cncnc2)c2ccc(Cl)cc2F)CC1 (stereo not drawn)
IC90 (Trypanosoma cruzi [3]): 306 nM and 614 nM
IC50 ([1]; IC50): > 100000 nM
IC50 (Trypanosoma cruzi [2]): 171 nM
IC50 (Trypanosoma cruzi [2]; [4]): 180 nM

CS(=O)(=O)N1CCN(C(c2cccnc2)c2ccc(Cl)cc2F)CC1 (stereo not drawn)
IC90 (Trypanosoma cruzi [3]): 160 nM and 110 nM
IC50 ([1]; IC50): > 100000 nM
IC50 (Trypanosoma cruzi [2]): 35 nM and 46 nM

NC(=O)c1cccc(C(O)(c2ccc(Cl)cc2)c2cccnc2)c1 (stereo not drawn)
IC90 (Trypanosoma cruzi [3]): 100 nM and 320 nM
IC50 ([1]; IC50): > 100000 nM
IC50 (Trypanosoma cruzi [2]): 30 nM and 78 nM

O=C(C1CC1)N1CCC(NC(c2ccc(C(F)(F)F)cc2)c2cnccn2)CC1 (stereo not drawn)
IC90 (Trypanosoma cruzi [3]): > 1000 nM
IC50 (Trypanosoma cruzi [2]): 640 nM

CC(C)Oc1ccccc1C(O)(c1ccc(Cl)cc1)c1cccnc1 (stereo not drawn)
IC90 (Trypanosoma cruzi [3]; [4]): 820 nM
IC50 (Trypanosoma cruzi [2]; [4]): 446 nM

OC(c1ccc(Cl)cc1)(c1cccnc1)c1cncnc1 (stereo not drawn)
IC90 (Trypanosoma cruzi [3]; [4]): 59000 nM
IC50 ([1]; IC50): > 100000 nM
IC50 (Trypanosoma cruzi [2]; [4]): 1530 nM

CON=C(c1ccc(Cl)cc1)C1(c2ccccc2C(=O)O)CC1
IC50 ([1]; IC50): > 100000 nM
IC50 (Trypanosoma cruzi [2]; [4]): > 1000 nM

COc1ccc(C(O)(c2cncnc2)c2ccccc2Cl)cc1 (stereo not drawn)
IC90 (Trypanosoma cruzi [3]; [4]): 60000 nM
IC50 ([1]; IC50): 70900 nM
IC50 (Trypanosoma cruzi [2]; [4]): 393 nM

O=C(NC1CCN(C(c2ccc(C(F)(F)F)cc2)c2cnccn2)CC1)C1CC1 (stereo not drawn)
IC90 (Trypanosoma cruzi [3]): 1290 nM
IC90 (Trypanosoma cruzi [3]; [4]): > 1000 nM
IC50 ([1]; IC50): > 100000 nM
IC50 (Trypanosoma cruzi [2]): 575 nM
IC50 (Trypanosoma cruzi [2]; [4]): 660 nM
